This is an account of results in patent publication US20110154529A1, “INDUCED CHROMOSOME DOUBLING IN PLANTS” (DOW AGROSCIENCES LLC, priority 2009, published 2011).

Read-outs that look alike come from different tables or passages of the source. Some results are limits rather than exact numbers.

In data set [1] the test system is haploid germinated maize seedlings. The text has this:
An exemplary cycloalkene, 1,2,3-Trimethoxy-4-((1S,6R)-6-nitro-cyclohex-3-enyl)-benzene, designated as compound 1 was used to determine double haploid efficiency, doubling rate by a coleoptile tip cutting, seedling soaking method. […] Data provided in Tables 1, 2 and 3 were generated using haploid seeds obtained through cross pollination of a maize line of interest with an inducer maize line.
The resulting maize seeds were sorted based on marker gene color.
Coleoptile tips in maize seedlings were cut and the seedlings were soaked in various chromosome doubling agents as shown in Table 1. Haploid maize seeds were germinated and the coleoptile tips were excised (1-2 mm). Seedlings that survived were transplanted and grown until tassels and silk formed. Plants that produced tassels and silk were self-pollinated. Seeds produced form the self-pollination were visually assessed for the marker to identify them as double haploid (dihaploid).

Data set [2] relates to germinated haploid maize seedlings in soil. Put plainly: Chromosome doubling by foliar spray treatment at V1-V3 stage. In kind it is in vivo. On the procedure:
Haploid maize seeds were planted in Sun Gro MetroMix® 306 planting mixture, which typically has a pH of 6.0 to 6.8 and an organic matter content of about 30 percent, in 72-well, plastic propagation flats (Dillen Products; Middlefield Ohio). When required to ensure good germination and healthy plants, a fungicide treatment and/or other chemical or physical treatment was applied. The plants were grown in a greenhouse with an approximate 15 hour photoperiod which was maintained at about 23-29° C. during the day and 22-28° C. during the night until they reached the V1-V3 growth stage. Nutrients and water were added on a regular basis and supplemental lighting was provided with overhead metal halide 1000-Watt lamps as necessary.
A weighed amount of compound 1, determined by the rate to be tested, was dissolved in 1.2 mL of dimethyl sulfoxide (DMSO) to obtain concentrated stock solutions. […] The concentrated stock solutions obtained were diluted with 10.8 mL of an aqueous mixture containing 1.25% v/v (volume/volume) Agri-dex Crop Oil Concentrate. Compound requirements are based upon a 12 mL application volume at a rate of 187 L/ha. Formulated compounds were applied to the plant material with an overhead Mandel track sprayer equipped with a 8002E nozzle calibrated to deliver 187 L/ha over an application area of 0.503 square meters at a spray height of 18 inches (43 cm) above the average plant canopy height. Control plants were sprayed in the same manner with the solvent blank.
The treated plants and control plants were placed in a greenhouse as described above and watered by sub-irrigation to prevent wash-off of the test compounds. Approximately 14 days after treatment, the treated plants were transplanted to individual pots containing Sun Gro MetroMix® 306. Plants that produced tassels and silk were then self-pollinated to obtain dihaploid seed.
Table 3 illustrates the results of doubling rate after spray treatment with the chemicals of interest. […] The spray treated plant tassels and silks were synchronized well and the plants shed more pollen.

In the next data set the test system is haploid maize seedlings. Put plainly: Chromosome doubling by seedling soaking, plants transplanted into the field. The data set is classed as in vivo. The method, then: The procedure listed in example 1 was utilized to treat maize seedlings that were subsequently transplanted into the field. Seedlings that survived the transplanting were grown to maturity. Plants that produced tassels and silk were self-pollinated. […] For the cycloalkene treatment, 25 μM and 100 μM concentrations of compound 1 was used.

Data set [3] can be described thus: Acute mammalian toxicity LD50 (rat). The following applies: in vivo.
Another data set deals with rabbit. Put plainly: Eye irritation. In kind it is in vivo. The following applies: dose of about 100 mg/animal.
In another data set the test system is rats. Put plainly: Dermal toxicity on rats. In kind it is in vivo, rat. The following applies: rats at 200 mg/kg.
The test system of the next data set is rat. The following applies: cited from earlier work.
Where [4] appears, read: seedling soak, rate 5 μM, TP = transplanted.
[5] abbreviates: seedling soak, rate 25 μM, TP = transplanted.
[6] abbreviates: seedling soak, rate 125 μM, TP = transplanted.
Where [7] appears, read: seedling soak, rate cell empty in table, colchicine at 0.06% w/v.

With `CC(C)OC(=O)Nc1cccc(Cl)c1` [Chlorpropham, chlorpropham], in data set [1] (seedling soak, rate 5 μM), the “% DR (doubling rate: No. plants with pollen and silk/No. of plants left * 100)” value worked out at 45.5%; the No. plants alive was found to be 16; the No. plants dead is 48; the “No. plants with pollen & silks” value was found to be 5. Moreover, the “No. plants dead after TP” value in data set [1] (setting [4]) is listed as 0. In data set [1] (seedling soak, rate 25 μM), this compound came in with a No. plants alive of 1 and a No. plants dead of 63. Also, the “No. plants dead after TP” value in data set [1] (setting [5]) is recorded as 0. In data set [1] (seedling soak, rate 125 μM), this compound returned a No. plants alive of 0 and a No. plants dead of 64. Moreover, the “No. plants dead after TP” value in data set [1] (setting [6]) was determined as 0. Besides, in data set [2] (spray, rate 70 g ai/ha), the “# plants dead after treatment” value is 0; the “# plants w/ pollen and silk” value came to 9; the “% DR (doubling rate)” value worked out at 40.9%. Further, in data set [2] (spray, rate 280 g ai/ha), the “# plants dead after treatment” value is given as 1; the “# plants w/ pollen and silk” value amounted to 18; the “% DR (doubling rate)” value amounted to 58.1%.

Turning to `C#CC(C)(C)NC(=O)c1cc(Cl)cc(Cl)c1` [Pronamide, pronamide], in data set [1] (seedling soak, rate 5 μM), the “% DR (doubling rate: No. plants with pollen and silk/No. of plants left * 100)” value amounted to 44.5%; the No. plants alive stood at 41; the No. plants dead is given as 23; the “No. plants with pollen & silks” value was determined as 12. In addition, the “No. plants dead after TP” value in data set [1] (setting [4]) stood at 3. Besides, in data set [1] (seedling soak, rate 25 μM), the No. plants alive is given as 13, the No. plants dead was 51 and the “No. plants with pollen & silks” value stood at 2. In addition, the “No. plants dead after TP” value in data set [1] (setting [5]) was found to be 1. Besides, in data set [1] (seedling soak, rate 125 μM), the No. plants alive turned out to be 2 and the No. plants dead is recorded as 62. The “No. plants dead after TP” value in data set [1] (setting [6]) was determined as 0. In data set [2] (spray, rate 35 g ai/ha), the “# plants dead after treatment” value is listed as 0; the “# plants w/ pollen and silk” value was found to be 5; the “% DR (doubling rate)” value worked out at 27.8%. Moreover, in data set [2] (spray, rate 140 g ai/ha), the “# plants dead after treatment” value came to 0; the “# plants w/ pollen and silk” value is 3; the “% DR (doubling rate)” value is 16.7%.

Regarding `COc1ccc([C@@H]2CC=CC[C@H]2[N+](=O)[O-])c(OC)c1OC` [Compound 1, 1,2,3-Trimethoxy-4-((1S,6R)-6-nitro-cyclohex-3-enyl)-benzene], the No. plants alive in data set [1] (maize, in vivo, 5 μM) worked out at 56; in data set [1] (maize, in vivo, 25 μM), 46; in data set [1] (maize, in vivo, 125 μM), 29. The No. plants dead in data set [1] (maize, in vivo, 5 μM) is 10; in data set [1] (maize, in vivo, 25 μM), 20; in data set [1] (maize, in vivo, 125 μM) it was 34. Further, the “No. plants dead after TP” value in data set [1] (maize, in vivo, 5 μM) turned out to be 2; in data set [1] (maize, in vivo, 25 μM) it was 2; in data set [1] (maize, in vivo, 125 μM), 2. The mortality rate in data set [1] (seedling soak, 5 μM (10/66*100)) was 15.1%; in data set [1] (seedling soak, 25 μM) it was 30.3%. The “% DR (doubling rate: No. plants with pollen and silk/No. of plants left * 100)” value in data set [1] (seedling soak, rate 5 μM) is on record as 53.3%; in data set [1] (seedling soak, rate 5 μM, listed as compound 1) it was “about 53%”; in data set [1] (seedling soak, rate 25 μM), 62.5%; in data set [1] (seedling soak, rate 125 μM), 76.5%. In addition, the “No. plants with pollen & silks” value in data set [1] (seedling soak, rate 5 μM) is 24; in data set [1] (seedling soak, rate 25 μM) it was 20; in data set [1] (seedling soak, rate 125 μM) it was 13. The “% DH pollination success” value with haploid maize seedlings (25 μM) was determined as 90%; in the data set on haploid maize seedlings (100 μM), 62.5%. For the same compound, the “% haploid maize plants pollinated (doubling rate)” value with haploid maize seedlings (25 μM) is on record as 67.79%; in the data set with haploid maize seedlings (100 μM) it was 51.06%. Besides, the “plants that had doubled haploid ears” value is given as 36 with haploid maize seedlings (25 μM, out of 40 pollinated maize haploid plants) and 15 with haploid maize seedlings (100 μM, out of 24 pollinated haploid maize plants). Also, the “# plants dead after treatment” value in data set [2] (maize, in vivo) is recorded as 0. In addition, the “# plants w/ pollen and silk” value in data set [2] (spray, rate 70 g ai/ha) is 6; in data set [2] (spray, rate 280 g ai/ha), 12. The “% DR (doubling rate)” value in data set [2] (spray, rate 70 g ai/ha) amounted to 31.2%; in data set [2] (spray, rate 280 g ai/ha), 46.2%. The same compound came in with an LD50 in data set [3] of no less than 500 mg/kg. The “Eye irritation: time to resolution of corneal and iridal effects” value with rabbit was no more than 48 h. Further, the “Eye irritation: animals with corneal and iridal effects” value in the data set with rabbit (at 24 hours) was 1 of 3 animals showed corneal and iridal effects. In addition, the dermal toxicity result with rats is “No dermal toxicity was observed”.

Turning to `COc1cc2c(c(OC)c1OC)-c1ccc(OC)c(=O)cc1[C@@H](NC(C)=O)CC2` [Colchicine, colchicine], in data set [1] (seedling soak, colchicine treatment at 0.06% w/v), the mortality rate is listed as 41.5%. Further, in data set [1] (setting [7]), the “% DR (doubling rate: No. plants with pollen and silk/No. of plants left * 100)” value is listed as 53.3%; the No. plants alive is on record as 38; the No. plants dead stood at 27; the “No. plants dead after TP” value is given as 0. In addition, the “No. plants with pollen & silks” value in data set [1] (setting [7]) is reported as 16. Moreover, the “% haploid maize plants pollinated (doubling rate)” value with haploid maize seedlings (0.06% colchicine) came to 55.68%. Moreover, the “plants that had doubled haploid ears” value in the data set with haploid maize seedlings (0.06% w/v colchicine, of about 49 haploid plants pollinated) is listed as “about 38”. The “oral LD50 (rat)” value in the data set with rat is listed as 5.89 mg/kg.

For orientation: LD50 means the dose at which mortality reaches 50%. A higher LD50 goes with lower toxicity.
